The values below come from patent US20260198495A1, “BINARY INSECTICIDE COMPOSITION AND USE THEREOF” (SHENYANG SINOCHEM AGROCHEMICALS R & D CO., LTD., priority 2022, published 2026).

What all share (format): in vivo
Experiment [1] deals with Thrips flavus Schrank nymphs. In words: Joint toxicity of I-72 + flonicamid, Example 78, Table 78. As to conditions: Thrips flavus; A = compound I-72, B = flonicamid; eggplant seedling spraying; 48 hours; read-out: LC50. The procedure:
Test target: Thrips flavus Schrank nymphs.
(§1) Preparation of the pesticide solution: according to different test requirements, the test samples were accurately weighed respectively with an electronic analytical balance. The technical pesticides were dissolved in acetone, and then diluted with 0.1% Tween 80 water into a series of pesticide solutions with a certain concentration gradient according to the experimental design dosage.
Experimental method: first, eggplant seedlings with Thrips flavus Schrank were selected, and the base number was counted. Then, uniform spraying was performed with the pesticide solution in the order from low to high doses according to the experimental design, with 2 mL for each seedling and 3 replicates for each treatment. In addition, a blank control was set up.
The treated test materials were placed in an observation room, and the temperature, humidity and illumination of the observation room could be adjusted as needed. The number of dead and live insects was investigated 48 hours later. […] Then, the co-toxicity coefficient of each ratio was calculated using the Sun Y-P method to evaluate the mixing effect (the same as in Example 1).

In experiment [2] the test system is adult Tetranychus cinnabarinus (Boisduval). Put plainly: Joint toxicity of I-72 + pyridaben, Example 84, Table 84. As to conditions: A = compound I72, B = pyridaben, potted-seedling spraying, 72 hours, read-out: LC50. How it is done: (§2) Test target: adult Tetranychus cinnabarinus (Boisduval), a sensitive strain reared indoors.
as §1
(§3) Experimental method: the activity of the mixture against the adult Tetranychus cinnabarinus (Boisduval) was determined by adopting the potted-seedling spraying method. First, the adult Tetranychus cinnabarinus of uniform size were transferred onto the leaves of kidney bean seedlings at the stage when the first pair of true leaves was fully expanded. After the adult mites had stabilized, the base number was counted. Then, the uniform spraying was performed with the pesticide solution in the order from low to high dose according to the experimental design, with 1.5 mL for each seedling and 3 replicates for each treatment. […]
(§4) The treated test materials were placed in an observation room, and the temperature, humidity and illumination of the observation room could be adjusted as needed. […] Then, the co-toxicity coefficient of each ratio was calculated using the Sun Y-P method to evaluate the mixing effect, as in Example 1.

The test system of experiment [3] is 3rd-instar larvae of Plutella xylostella. In words: Joint toxicity of I-72 + metaflumizone, airbrush spraying, Example 4, Table 4. As to conditions: Plutella xylostella, foliar, airbrush spraying of cabbage leaf disks, 72 h, A = compound I-72, B = metaflumizone, read-out: LC50. The procedure:
Test target: 3rd-instar larvae of Plutella xylostella, a sensitive strain reared indoors.
Test conditions: temperature: 25-27° C., humidity: RH 60%, and illumination: L:D=14:10
Experimental method: the airbrush spraying method was adopted. The cabbage cultivated in the greenhouse was taken and made into leaf disks with a diameter of 3 cm. After uniform spraying treatment with an airbrush manual sprayer, the leaf disks were placed in a 9-cm Petri dish lined with filter paper. After natural air-drying in the shade, the standard test insects were introduced, and the number of dead and live insects was investigated 72 h later.
The preparation of the pesticide solution and the evaluation method (Sun Y-P) for the joint action type of the mixture were the same as those in Example 1.

Experiment [4] concerns Nilaparvata lugens (Stal) nymphs. Put plainly: Joint toxicity of I-72 + buprofezin, Example 52, Table 52. As to conditions: A = compound I-72, B = buprofezin, potted-seedling spraying, 72 hours, read-out: LC50. How it is done:
Test target: Nilaparvata lugens (Stal) nymphs, a sensitive strain reared indoors.
as §1
Experimental method: the activity of the mixture against the Nilaparvata lugens (Stal) nymphs was determined by adopting the potted-seedling spraying method. First, rice seedlings were planted in culture pots. Uniform spraying was performed with the pesticide solution in the order from low dosage to high dosage according to the experimental design, with 2 mL for each seedling. Then, Nilaparvata lugens nymphs of uniform size were transferred onto the rice seedlings, with 3 replicates for each treatment. In addition, a blank control was set up.
The treated test materials were placed in an observation room, and the temperature, humidity and illumination of the observation room could be adjusted as needed. The number of dead and live insects was investigated 72 hours later. […] Then, the co-toxicity coefficient of each ratio was calculated using the Sun Y-P method to evaluate the mixing effect, as in Example 1.

In experiment [5] the test system is 2nd-instar larvae of Mythimna separata. In words: Joint toxicity of I-72 + hexaflumuron, Example 56, Table 56. As to conditions: foliar, A = compound I-72, B = hexaflumuron, corn leaf dipping, 72 hours, read-out: LC50. The procedure: Test target: 2nd-instar larvae of Mythimna separata.
as §1
Experimental method: first, corn leaves were selected and dipped in the prepared pesticide solution for 10 s in the order from low dosage to high dosage according to the experimental design. After natural air-drying in the shade, they were placed in a 9-cm-diameter Petri dish with filter paper, and uniform and healthy test insects were introduced, with 10 insects for each treatment and 3 replicates for each treatment. In addition, a blank control was set up.
(§5) The treated test materials were placed in an observation room, and the temperature, humidity and illumination of the observation room could be adjusted as needed. The number of dead and live insects was investigated 72 hours later. […] Then, the co-toxicity coefficient of each ratio was calculated using the Sun Y-P method to evaluate the mixing effect (the same as in Example 1).

For experiment [6], the system named is adult Tetranychus cinnabarinus (Boisduval). In words: Joint toxicity of I-72 + spirodiclofen, potted-seedling spraying, Example 25, Table 25. As to conditions: Tetranychus cinnabarinus, A = compound I-72, B = spirodiclofen, 72 hours, read-out: LC50. How it is done: as §2, §1, §3, §4
The test system of experiment [7] is 2nd-instar larvae of Spodoptera exigua Hübner. Put plainly: Joint toxicity of I-72 + lufenuron, Example 54, Table 54. As to conditions: foliar, A = compound I-72, B = lufenuron, cabbage leaf dipping, 72 hours, read-out: LC50. The procedure: Test target: 2nd-instar larvae of Spodoptera exigua Hübner.
as §1
Experimental method: first, cabbage leaves were selected and dipped in the prepared pesticide solution for 10 s in the order from low dosage to high dosage according to the experimental design. After natural air-drying in the shade, they were placed in a 9-cm-diameter Petri dish with filter paper, and uniform and healthy test insects were introduced, with 10 insects for each treatment and 3 replicates for each treatment. In addition, a blank control was set up.
as §5

For the compound `CN(C(=O)c1ccc2c(c1)OC(F)(F)O2)c1cccc(C(=O)Nc2c(Br)cc(C(F)(C(F)(F)F)C(F)(F)F)cc2OC(F)F)c1F` [Compound I-72], the median lethal concentration (LC50) was 1.9 µg/mL in experiment [1]; 33.5 µg/mL in experiment [2]; 0.0867 µg/mL in experiment [3]; 253 µg/mL in experiment [4]; 0.0301 µg/mL in experiment [5]; 35.1 µg/mL in experiment [6]. In experiment [7], the 50% lethal concentration (LC50) was determined as 0.273 µg/mL.
